Source: ChEMBL document CHEMBL4390638, “SYA 013 analogs as moderately selective sigma-2 (σ2) ligands: Structure-affinity relationship studies” (Bioorg Med Chem, 2019)
pKi: −log10 of the molar value.

Target: Sigma non-opioid intracellular receptor 1 (Homo sapiens, UniProt Q99720)
Assay: Displacement [3H]-Pentazocine from sigma 1 receptor (unknown origin) expressed in HEK cell membranes
Settings: read-out: Ki

Chain of Sigma non-opioid intracellular receptor 1 (Q99720 whole entry): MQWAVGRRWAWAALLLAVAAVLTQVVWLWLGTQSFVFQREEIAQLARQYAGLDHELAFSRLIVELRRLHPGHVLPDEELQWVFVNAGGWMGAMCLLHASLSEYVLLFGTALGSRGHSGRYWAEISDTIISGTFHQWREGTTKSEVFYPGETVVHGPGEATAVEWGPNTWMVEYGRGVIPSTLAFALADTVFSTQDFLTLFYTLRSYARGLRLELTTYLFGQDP

| pKi | Compound |
| --- | --- |
| 7.38 | Fc1ccc(OCCCN2CCN(c3ccccc3)CC2)cc1 |
| 7.60 | O=C(CCCN1CCN(c2ccc(Cl)cn2)CC1)c1ccc(F)cc1 |
| 7.29 | Clc1ccc(N2CCN(CCCOc3ccccc3)CC2)cc1 |
| 5.94 | [O-][S+](CCCN1CCN(c2ccc(Cl)cc2)CC1)c1ccc(F)cc1 (stereo unspecified) |
| 6.83 | O/N=C(/CCCN1CCCN(c2ncccn2)CC1)c1ccc(F)cc1 |
| 8.44 | Fc1ccc(CCCCN2CCCN(c3ccc(Cl)cc3)CC2)cc1 |
| 7.11 | c1ccc(OCCCN2CCN(c3ccccc3)CC2)cc1 |
| 7.20 | O=C(CCCN1CCCN(c2ncccn2)CC1)c1ccc(F)cc1 |
| 7.52 | O=C(CCCN1CCCN(c2ccc(Cl)cn2)CC1)c1ccc(F)cc1 |
| 8.54 | Fc1ccc(OCCCN2CCCN(c3ccc(Cl)cc3)CC2)cc1 |
| 6.39 | O=C(CCCN1CCN(c2ccccn2)CC1)c1ccc(F)cc1 [AZAPERONE] |
| 6.95 | O/N=C(/CCCN1CCCN(c2ccc(Cl)cn2)CC1)c1ccc(F)cc1 |
| 7.02 | Fc1ccc(CCCCN2CCN(c3ccc(Cl)cn3)CC2)cc1 |
| 8.14 | Fc1ccc(SCCCN2CCCN(c3ccc(Cl)cn3)CC2)cc1 |
| 7.15 | O/N=C(/CCCN1CCCN(c2ccccn2)CC1)c1ccc(F)cc1 |

| Compound | pKi |
| --- | --- |
| OC1(c2ccc(Cl)cc2)CC2CCC(C1)N2CCCOc1ccc(F)cc1 (stereo unspecified) | 6.78 |
| OC1(c2ccc(Cl)cc2)CC2CCC(C1)N2CCCSc1ccccc1F (stereo unspecified) | 7.24 |
| OC1(c2ccc(Cl)cc2)CC2CCC(C1)N2CCCSc1ccc(F)cc1 (stereo unspecified) | 7.09 |
| Fc1ccc(CCCCN2CCN(c3ccc(Cl)cc3)CC2)cc1 | 7.44 |
| OC1(c2ccc(Cl)cc2)CC2CCC(C1)N2CCCSc1cccc(F)c1 (stereo unspecified) | 7.15 |
| OC1(c2ccc(Cl)cc2)CC2CCC(C1)N2CCCCc1ccc(F)cc1 (stereo unspecified) | 7.66 |

Same assay, conditions: read-out: pKi (converted)

| Ki [nM] | Compound |
| --- | --- |
| 457 | O=C(CCCN1CCCN(c2ccccn2)CC1)c1ccc(F)cc1 |

Target: Sigma intracellular receptor 2 (Homo sapiens, UniProt Q5BJF2)
Assay: Displacement [3H]-DTG from sigma 2 receptor (unknown origin) expressed in HEK cell membranes
Settings: not given

Chain of Sigma intracellular receptor 2 (Q5BJF2 whole entry): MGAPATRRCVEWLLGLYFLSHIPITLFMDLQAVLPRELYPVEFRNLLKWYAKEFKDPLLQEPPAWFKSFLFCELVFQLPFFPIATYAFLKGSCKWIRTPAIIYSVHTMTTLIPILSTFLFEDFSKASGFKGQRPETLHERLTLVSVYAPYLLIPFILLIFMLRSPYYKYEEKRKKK

| pKi | Compound |
| --- | --- |
| 8.29 | Fc1ccc(OCCCN2CCN(c3ccccc3)CC2)cc1 |
| 8.08 | O=C(CCCN1CCN(c2ccc(Cl)cn2)CC1)c1ccc(F)cc1 |
| 7.49 | O=C(CCCN1CCCN(c2ccccn2)CC1)c1ccc(F)cc1 |
| 7.48 | Clc1ccc(N2CCN(CCCOc3ccccc3)CC2)cc1 |
| 6.22 | [O-][S+](CCCN1CCN(c2ccc(Cl)cc2)CC1)c1ccc(F)cc1 (stereo unspecified) |
| 7.59 | O/N=C(/CCCN1CCCN(c2ncccn2)CC1)c1ccc(F)cc1 |
| 8.07 | Fc1ccc(CCCCN2CCCN(c3ccc(Cl)cc3)CC2)cc1 |
| 7.60 | c1ccc(OCCCN2CCN(c3ccccc3)CC2)cc1 |
| 7.36 | O=C(CCCN1CCCN(c2ncccn2)CC1)c1ccc(F)cc1 |
| 8.10 | O=C(CCCN1CCCN(c2ccc(Cl)cn2)CC1)c1ccc(F)cc1 |
| 8.23 | Fc1ccc(OCCCN2CCCN(c3ccc(Cl)cc3)CC2)cc1 |
| 7.28 | O=C(CCCN1CCN(c2ccccn2)CC1)c1ccc(F)cc1 [AZAPERONE] |
| 8.57 | O/N=C(/CCCN1CCCN(c2ccc(Cl)cn2)CC1)c1ccc(F)cc1 |
| 7.37 | Fc1ccc(CCCCN2CCN(c3ccc(Cl)cn3)CC2)cc1 |
| 8.66 | Fc1ccc(SCCCN2CCCN(c3ccc(Cl)cn3)CC2)cc1 |
| 7.88 | O/N=C(/CCCN1CCCN(c2ccccn2)CC1)c1ccc(F)cc1 |

| Compound | pKi |
| --- | --- |
| OC1(c2ccc(Cl)cc2)CC2CCC(C1)N2CCCOc1ccc(F)cc1 (stereo unspecified) | 7.74 |
| OC1(c2ccc(Cl)cc2)CC2CCC(C1)N2CCCSc1ccccc1F (stereo unspecified) | 8.66 |
| OC1(c2ccc(Cl)cc2)CC2CCC(C1)N2CCCSc1cccc(F)c1 (stereo unspecified) | 8.09 |
| OC1(c2ccc(Cl)cc2)CC2CCC(C1)N2CCCCc1ccc(F)cc1 (stereo unspecified) | 7.57 |

Organism: Homo sapiens
Assay: Selectivity index, ratio of Ki for displacement [3H]-Pentazocine from sigma 1 receptor (unknown origin) expressed in HEK cell membranes to Ki for [3H]-DTG from sigma 2 receptor (unknown origin) expressed in HEK cell membranes
Settings: not given

| Compound | Ratio Ki |
| --- | --- |
| Fc1ccc(OCCCN2CCN(c3ccccc3)CC2)cc1 | 8.1 |
| O=C(CCCN1CCN(c2ccc(Cl)cn2)CC1)c1ccc(F)cc1 | 3 |
| O=C(CCCN1CCCN(c2ccccn2)CC1)c1ccc(F)cc1 | 14 |
| Clc1ccc(N2CCN(CCCOc3ccccc3)CC2)cc1 | 1.6 |
| [O-][S+](CCCN1CCN(c2ccc(Cl)cc2)CC1)c1ccc(F)cc1 (stereo unspecified) | 1.9 |
| O/N=C(/CCCN1CCCN(c2ncccn2)CC1)c1ccc(F)cc1 | 5.7 |
| Fc1ccc(CCCCN2CCCN(c3ccc(Cl)cc3)CC2)cc1 | 0.4 |
| c1ccc(OCCCN2CCN(c3ccccc3)CC2)cc1 | 3.1 |
| O=C(CCCN1CCCN(c2ncccn2)CC1)c1ccc(F)cc1 | 1.4 |
| O=C(CCCN1CCCN(c2ccc(Cl)cn2)CC1)c1ccc(F)cc1 | 3.8 |
| OC1(c2ccc(Cl)cc2)CC2CCC(C1)N2CCCSc1ccccc1F (stereo unspecified) | 25.9 |
| Fc1ccc(OCCCN2CCCN(c3ccc(Cl)cc3)CC2)cc1 | 0.5 |
| OC1(c2ccc(Cl)cc2)CC2CCC(C1)N2CCCSc1cccc(F)c1 (stereo unspecified) | 8.8 |
| O=C(CCCN1CCN(c2ccccn2)CC1)c1ccc(F)cc1 [AZAPERONE] | 7.8 |
| O/N=C(/CCCN1CCCN(c2ccc(Cl)cn2)CC1)c1ccc(F)cc1 | 41.8 |
| Fc1ccc(CCCCN2CCN(c3ccc(Cl)cn3)CC2)cc1 | 2.2 |
| OC1(c2ccc(Cl)cc2)CC2CCC(C1)N2CCCCc1ccc(F)cc1 (stereo unspecified) | 0.8 |
| Fc1ccc(SCCCN2CCCN(c3ccc(Cl)cn3)CC2)cc1 | 3.3 |
| O/N=C(/CCCN1CCCN(c2ccccn2)CC1)c1ccc(F)cc1 | 5.3 |
